In patent US7235577B1 (priority 2000, dated 2007):

Legend:
mKv1.1 = molecular target: T1, mKv1.1 (Mus musculus, UniProt P16388); experiment: Selectivity patch clamp, L929 cells expressing mKv1.1; assay type: cell-based
T1 construct: expressed in transfected cells; host or cells: L929
Method: (§1) L929 cells stably expressing mKv1.1, rKv1.2, mKv1.3, and mKv3.1 and MEL cells stably expressing hKv1.5 have been previously described (Grissmer 1994, Mol. Pharmacol. 45: 1227). hKv1.4 and rKv4.2 were stably expressed in LTK (HK1–7). Channel expression was induced 8–12 h before the electrophysiological experiments by 4 μM dexamethasone (Sigma). HEK-293 cells stably expressing the skeletal muscle sodium channel hSkM1 (SCN4A) were generated in the laboratory of Dr. F. Lehmann-Horn. HEK-293 cells stably expressing hSloα were obtained from Dr. Andrew Tinker (Center for Clinical Pharmacology, University College London). L929, MEL, LTK and HEK cells were maintained in DMEM containing 10% heat-inactivated fetal calf serum (Summit Biotechnology, Fort Collins, Colo.) and 250 μg/ml G418 (Life Technologies, Inc.). Rat basophilic leukemia (RBL) cells were maintained in Eagle's minimum essential medium with 2 mM L-glutamine and 10% fetal calf serum. CHO cell were maintained in F12K media (ATCC). Human leukemic Jurkat E6–1 cells were cultured in RPMI 1640 supplemented with 10% fetal calf serum and 1 mM L-glutamine. T84 cells were maintained in a 1:1 mixture of Ham's F12 medium and DMEM with 2.5 mM L-glutamine and 10% fetal calf serum.
(§2) Recordings from the Jurkat SKCa channel were made in K^+ aspartate Ringer (Na^+ was replaced by K^+) with the same internal pipette solution. […]

mKv1.3 = molecular target: T2, mKv1.3 (Mus musculus, UniProt P16390); experiment: Selectivity patch clamp, L929 cells expressing mKv1.3; assay type: cell-based
T2 construct: expressed in transfected cells; host or cells: L929
Method: as §1, §2

Jurkat-SK = molecular target: T3, Jurkat-SK (Homo sapiens, UniProt Q9H2S1); experiment: Selectivity patch clamp, Jurkat SKCa channel; assay type: cell-based
T3 construct: endogenous in cells; host or cells: Jurkat E6-1
Method: as §1, §2

BK (hSloα) = molecular target: T4, BK (hSloα) (Homo sapiens, UniProt Q12791); experiment: Selectivity patch clamp, HEK-293 cells expressing hSloα (BKCa); assay type: cell-based
T4 construct: expressed in transfected cells; host or cells: HEK-293
Method: as §1, §2

rKir2.1 = molecular target: T5, rKir2.1 (Rattus norvegicus, UniProt Q64273); experiment: Selectivity patch clamp, RBL inward rectifier; assay type: cell-based; conditions: RBL cells; slope conductance at −110 mV
T5 construct: endogenous in cells; host or cells: RBL (rat basophilic leukemia)
Method: as §1, §2

HSKM1 = molecular target: T6, HSKM1 (Homo sapiens, UniProt P35499); experiment: Selectivity patch clamp, HEK-293 cells expressing skeletal muscle sodium channel hSkM1 (SCN4A); assay type: cell-based
T6 construct: expressed in transfected cells; host or cells: HEK-293
Method: as §1, §2

Jurkat-CRAC = experiment: Selectivity patch clamp, Jurkat CRAC channels; assay type: cell-based, human; conditions: monovalent currents with Na+ as charge carrier
Method: as §1, §2

human T-lymphocytes = experiment: In vitro toxicity, propidium iodide uptake, 48 h; assay type: cell-based
Method: (§3) The in vitro toxicity was performed as follows.

L929 cells = experiment: In vitro toxicity, propidium iodide uptake, 48 h; assay type: cell-based, murine
Method: as §3

MEL cells = experiment: In vitro toxicity, propidium iodide uptake, 48 h; assay type: cell-based, murine
Method: as §3

COS-7 cells = experiment: In vitro toxicity, propidium iodide uptake, 48 h; assay type: cell-based, African green monkey
Method: as §3

CHO cells = experiment: In vitro toxicity, propidium iodide uptake, 48 h; assay type: cell-based, Chinese hamster
Method: as §3

RBL-2H3 cells = experiment: In vitro toxicity, propidium iodide uptake, 48 h; assay type: cell-based, rat
Method: as §3

C2F3 cells = experiment: In vitro toxicity, propidium iodide uptake, 48 h; assay type: cell-based, human
Method: as §3

Jurkat E6-1 cells = experiment: In vitro toxicity, propidium iodide uptake, 48 h; assay type: cell-based, human
Method: as §3

NGP cells = experiment: In vitro toxicity, propidium iodide uptake, 48 h; assay type: cell-based, human
Method: as §3

NLF cells = experiment: In vitro toxicity, propidium iodide uptake, 48 h; assay type: cell-based, human
Method: as §3

CF-1 BR mice = experiment: ISO acute systemic toxicity study; conditions: single i.v. 0.5 mg/kg
Method: An ISO acute systemic toxicity study was performed in CF-1 BR mice (17–19 g) according to the guidelines of the United States Pharmacopeia XXII. […] Five control mice were injected with an equal volume of the vehicle. The mice were weighed at the beginning of the study and at its termination.

[1] = Hydrolytic stability by HPLC; conditions: for stability against hydrolysis: over 72 h
Method: A Waters 590 liquid chromatograph with a Waters 746 integrator and a Waters 486 UVN is detector, and a 25 cm Lichrospher RP18 column (5-μM particle size) was used. The mobile phase consisted of K2HPO4 25 mM, KH2PO4 30 mM, methanol at 262:13:725. The chromatographic separation was performed at 20° C. with a flow rate of 1.0 ml/min, the absorbance of the elluent was monitored at 210 nm.
Hydrolysis profiles (10 μM compound with 20% acetonitrile) were carried out in Soerensen phosphate buffer (pH 7.4 and pH 5.0) in a total volume of 10 ml. 100 μl samples were collected 0, 1, 2, 3, 4, 5, 24, 48 and 72 hours after incubation, with shaking, in a waterbath at 37° C. and manually injected into the HPLC over Rheodyne 7125 system. For profiles at pH 1.0 artificial stomach fluid (DAB 9), containing 2 g NaCl, 3,2 g pepsin and 80 ml 1 M HCL in 1.0 L of water was used. After 0, 1 and 2 hours 400 μl of sample were collected and extracted three times with 500 μl of ethyl ether by vortexing. The combined extracts were than evaporated to dryness by passing nitrogen through the solution. The residue was than dissolved in 400 μl of mobile phase of which […] were injected in the HPLC.

ten cell lines = experiment: In vitro toxicity, summary over the ten cell lines; conditions: at a concentration 100–250 times the Kd for IKCa1 channel block
Method: The in vitro toxicity was performed as follows. Jurkat E6-1, MEL, C2F3, NGP, NLF cells and human T-lymphocytes were seeded at 5×10^5 cells/ml, and L929, COS-7, CHO and RBL cells were seeded at 10^5 cells/ml in twelve-well plates. Drug (2 or 5 μM) was added in a final DMSO concentration of 0.1%. After 48 h of incubation at 37° C. with 5% CO2, cells were harvested by sucking them off the plates (suspension cells) or by trypsinization (adherent cell lines). Cells were centrifuged, resuspended in 0.5 ml PBS containing 1 μg/ml propidium iodide (PI), and red fluorescence measured on a FACScan flow cytometer after 20 min, 10^4 cells of every sample being analyzed. The percentage of dead cells was determined by their PI uptake. Two controls for every cell line (one in medium and one with 0.1% DMSO) were also analyzed.

T6 sequence (P35499 whole entry): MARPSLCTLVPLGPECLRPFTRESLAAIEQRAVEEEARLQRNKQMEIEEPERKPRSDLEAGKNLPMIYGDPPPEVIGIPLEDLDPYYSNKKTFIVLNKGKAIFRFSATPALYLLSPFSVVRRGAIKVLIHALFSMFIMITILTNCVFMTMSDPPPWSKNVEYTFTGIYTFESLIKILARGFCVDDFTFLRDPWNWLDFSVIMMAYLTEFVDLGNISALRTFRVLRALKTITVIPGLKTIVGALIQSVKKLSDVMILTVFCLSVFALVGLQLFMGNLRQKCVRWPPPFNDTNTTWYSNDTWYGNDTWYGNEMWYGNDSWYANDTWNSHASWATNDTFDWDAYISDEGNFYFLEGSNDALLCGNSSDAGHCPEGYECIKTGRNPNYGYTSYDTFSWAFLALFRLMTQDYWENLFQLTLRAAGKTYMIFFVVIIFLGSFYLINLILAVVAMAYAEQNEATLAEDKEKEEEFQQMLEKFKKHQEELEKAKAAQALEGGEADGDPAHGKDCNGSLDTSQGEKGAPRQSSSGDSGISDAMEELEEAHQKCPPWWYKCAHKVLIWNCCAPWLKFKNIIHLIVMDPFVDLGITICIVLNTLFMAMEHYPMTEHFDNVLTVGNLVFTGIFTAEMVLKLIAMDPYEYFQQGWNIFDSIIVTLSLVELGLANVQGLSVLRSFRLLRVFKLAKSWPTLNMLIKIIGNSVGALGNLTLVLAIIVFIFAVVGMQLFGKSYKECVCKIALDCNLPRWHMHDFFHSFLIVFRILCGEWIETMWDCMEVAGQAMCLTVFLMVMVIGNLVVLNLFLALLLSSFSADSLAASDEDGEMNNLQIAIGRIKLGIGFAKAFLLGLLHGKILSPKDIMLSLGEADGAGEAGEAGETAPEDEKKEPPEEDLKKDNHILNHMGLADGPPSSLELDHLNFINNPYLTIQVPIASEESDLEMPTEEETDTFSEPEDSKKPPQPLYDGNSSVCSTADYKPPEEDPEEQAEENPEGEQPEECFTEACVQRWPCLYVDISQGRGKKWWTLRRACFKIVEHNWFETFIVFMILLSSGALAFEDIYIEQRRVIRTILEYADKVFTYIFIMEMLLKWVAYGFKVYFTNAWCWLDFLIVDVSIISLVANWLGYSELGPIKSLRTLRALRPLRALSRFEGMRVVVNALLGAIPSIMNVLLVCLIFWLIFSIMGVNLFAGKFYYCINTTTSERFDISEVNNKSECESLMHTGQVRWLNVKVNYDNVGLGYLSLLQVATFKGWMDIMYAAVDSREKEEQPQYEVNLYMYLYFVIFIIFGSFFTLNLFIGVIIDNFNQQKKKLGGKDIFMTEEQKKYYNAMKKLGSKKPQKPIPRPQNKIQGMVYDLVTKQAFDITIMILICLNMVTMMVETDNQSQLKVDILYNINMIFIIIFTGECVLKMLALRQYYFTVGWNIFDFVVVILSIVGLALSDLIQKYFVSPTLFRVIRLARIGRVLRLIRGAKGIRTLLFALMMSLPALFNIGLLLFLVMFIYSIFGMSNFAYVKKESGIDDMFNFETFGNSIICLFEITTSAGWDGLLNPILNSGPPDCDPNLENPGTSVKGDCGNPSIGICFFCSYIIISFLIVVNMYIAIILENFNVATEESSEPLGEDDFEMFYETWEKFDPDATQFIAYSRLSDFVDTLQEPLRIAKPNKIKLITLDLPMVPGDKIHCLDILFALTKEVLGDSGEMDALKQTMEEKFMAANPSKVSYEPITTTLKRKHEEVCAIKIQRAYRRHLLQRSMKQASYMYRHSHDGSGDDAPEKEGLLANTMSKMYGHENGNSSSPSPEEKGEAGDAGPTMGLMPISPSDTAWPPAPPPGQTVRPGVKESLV
T2 sequence (P16390 whole entry): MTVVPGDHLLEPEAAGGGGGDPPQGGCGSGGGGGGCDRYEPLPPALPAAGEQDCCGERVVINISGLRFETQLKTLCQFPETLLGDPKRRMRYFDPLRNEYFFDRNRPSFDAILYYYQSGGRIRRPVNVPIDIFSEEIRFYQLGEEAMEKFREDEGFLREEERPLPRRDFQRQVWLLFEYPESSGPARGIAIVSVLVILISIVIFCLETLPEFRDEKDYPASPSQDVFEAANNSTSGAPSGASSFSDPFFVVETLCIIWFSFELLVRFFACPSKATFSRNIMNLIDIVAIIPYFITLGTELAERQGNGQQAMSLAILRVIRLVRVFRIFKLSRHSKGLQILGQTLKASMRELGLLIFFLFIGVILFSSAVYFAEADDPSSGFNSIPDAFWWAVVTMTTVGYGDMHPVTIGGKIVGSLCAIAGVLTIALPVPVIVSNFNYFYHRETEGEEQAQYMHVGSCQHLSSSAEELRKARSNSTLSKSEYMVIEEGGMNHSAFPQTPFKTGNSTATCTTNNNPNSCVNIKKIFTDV
T1 sequence (P16388 whole entry): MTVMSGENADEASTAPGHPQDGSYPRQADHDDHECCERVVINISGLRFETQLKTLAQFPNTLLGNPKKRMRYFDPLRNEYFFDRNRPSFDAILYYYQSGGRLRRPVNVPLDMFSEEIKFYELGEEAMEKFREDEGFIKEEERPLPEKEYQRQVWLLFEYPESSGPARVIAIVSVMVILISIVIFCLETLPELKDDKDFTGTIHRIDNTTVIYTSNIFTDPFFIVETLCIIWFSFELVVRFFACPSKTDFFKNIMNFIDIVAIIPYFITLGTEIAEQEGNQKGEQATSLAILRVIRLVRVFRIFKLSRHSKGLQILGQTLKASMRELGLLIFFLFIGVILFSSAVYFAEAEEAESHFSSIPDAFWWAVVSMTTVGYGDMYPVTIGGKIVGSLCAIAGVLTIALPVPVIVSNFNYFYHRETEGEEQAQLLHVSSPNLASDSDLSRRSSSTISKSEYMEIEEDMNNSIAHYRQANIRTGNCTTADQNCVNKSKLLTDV
T3 sequence (Q9H2S1 whole entry): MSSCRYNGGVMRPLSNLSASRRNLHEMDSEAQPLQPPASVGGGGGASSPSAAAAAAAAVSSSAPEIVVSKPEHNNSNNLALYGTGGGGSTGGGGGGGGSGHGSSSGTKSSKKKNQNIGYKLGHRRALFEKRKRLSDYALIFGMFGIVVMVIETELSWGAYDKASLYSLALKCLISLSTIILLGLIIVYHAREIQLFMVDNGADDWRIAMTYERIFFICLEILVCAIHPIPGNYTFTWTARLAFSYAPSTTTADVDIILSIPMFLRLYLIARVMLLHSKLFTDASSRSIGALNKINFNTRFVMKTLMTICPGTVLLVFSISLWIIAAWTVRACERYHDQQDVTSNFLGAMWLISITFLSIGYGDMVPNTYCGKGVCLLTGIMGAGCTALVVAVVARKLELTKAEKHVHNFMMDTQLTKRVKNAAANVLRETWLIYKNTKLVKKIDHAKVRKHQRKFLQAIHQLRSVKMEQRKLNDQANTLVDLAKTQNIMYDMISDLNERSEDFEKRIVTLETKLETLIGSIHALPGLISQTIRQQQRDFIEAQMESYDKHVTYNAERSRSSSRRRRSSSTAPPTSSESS
T5 sequence (Q64273 whole entry): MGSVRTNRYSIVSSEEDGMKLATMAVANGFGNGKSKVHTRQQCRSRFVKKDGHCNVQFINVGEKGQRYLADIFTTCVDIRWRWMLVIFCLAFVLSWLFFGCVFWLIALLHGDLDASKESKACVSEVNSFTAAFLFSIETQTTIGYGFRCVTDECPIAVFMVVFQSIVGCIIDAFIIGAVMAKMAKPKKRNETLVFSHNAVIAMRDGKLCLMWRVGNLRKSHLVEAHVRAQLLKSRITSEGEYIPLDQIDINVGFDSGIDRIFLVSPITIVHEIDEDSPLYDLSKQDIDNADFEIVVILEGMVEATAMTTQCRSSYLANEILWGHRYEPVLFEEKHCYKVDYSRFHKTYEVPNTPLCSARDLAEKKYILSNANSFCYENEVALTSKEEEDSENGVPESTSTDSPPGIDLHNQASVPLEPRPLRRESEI
T4 sequence (Q12791 whole entry): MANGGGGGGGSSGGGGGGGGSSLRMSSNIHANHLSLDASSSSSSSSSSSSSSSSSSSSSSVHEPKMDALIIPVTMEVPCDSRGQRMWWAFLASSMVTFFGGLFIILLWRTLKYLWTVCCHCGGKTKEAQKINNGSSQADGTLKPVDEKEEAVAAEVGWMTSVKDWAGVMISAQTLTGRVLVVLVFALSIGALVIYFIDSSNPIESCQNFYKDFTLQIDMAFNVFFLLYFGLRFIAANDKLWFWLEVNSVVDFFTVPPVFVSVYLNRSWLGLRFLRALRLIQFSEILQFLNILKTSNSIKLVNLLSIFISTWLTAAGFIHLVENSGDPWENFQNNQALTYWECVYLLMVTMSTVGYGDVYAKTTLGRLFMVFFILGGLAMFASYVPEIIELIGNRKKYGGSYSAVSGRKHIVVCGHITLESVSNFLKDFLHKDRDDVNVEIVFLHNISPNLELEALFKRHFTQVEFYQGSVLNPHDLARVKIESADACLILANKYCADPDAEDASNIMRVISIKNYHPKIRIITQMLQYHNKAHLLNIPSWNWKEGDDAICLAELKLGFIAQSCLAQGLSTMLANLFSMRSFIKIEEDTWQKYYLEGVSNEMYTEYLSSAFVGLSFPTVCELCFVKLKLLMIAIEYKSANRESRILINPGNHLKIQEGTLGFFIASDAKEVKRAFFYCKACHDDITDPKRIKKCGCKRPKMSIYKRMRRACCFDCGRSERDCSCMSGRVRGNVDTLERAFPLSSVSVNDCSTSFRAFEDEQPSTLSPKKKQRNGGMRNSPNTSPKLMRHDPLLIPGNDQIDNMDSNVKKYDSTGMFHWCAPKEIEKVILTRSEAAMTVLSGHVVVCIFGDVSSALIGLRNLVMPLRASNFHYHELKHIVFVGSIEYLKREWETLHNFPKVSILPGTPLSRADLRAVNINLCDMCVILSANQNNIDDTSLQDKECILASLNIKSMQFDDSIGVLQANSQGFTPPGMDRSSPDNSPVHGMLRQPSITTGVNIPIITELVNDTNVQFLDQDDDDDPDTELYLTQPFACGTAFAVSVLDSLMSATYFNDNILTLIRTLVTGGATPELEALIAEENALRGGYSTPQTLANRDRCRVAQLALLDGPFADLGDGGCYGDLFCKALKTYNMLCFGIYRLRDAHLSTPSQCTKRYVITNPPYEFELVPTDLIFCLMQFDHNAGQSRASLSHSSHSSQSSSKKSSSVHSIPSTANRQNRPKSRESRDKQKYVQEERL

Structure (SMILES): Clc1ccccc1C(c1ccccc1)(c1ccccc1)n1cccn1 [Compound T34, 1-[(2-Chlorophenyl)diphenylmethyl]-1H-pyrazole]
- Kd (mKv1.1): 9.5 ± 1 µM
- Kd (mKv1.3): 5 ± 0.35 µM
- Kd (Jurkat-SK): 23 ± 2 µM
- Kd (BK (hSloα)): 25 ± 1.8 µM
- Block of rKir2.1 (rKir2.1): no effect at 10 μM
- Kd (HSKM1): 8 ± 0.6 µM
- Block of Jurkat-CRAC (Ca) (Jurkat-CRAC): no effect at 10 μM
- percentage of dead cells (PI uptake) (human T-lymphocytes; 2 μM): 6.2%
- percentage of dead cells (PI uptake) (human T-lymphocytes; 5 μM): 7.0%
- percentage of dead cells (PI uptake) (L929 cells; 2 μM): 4.6%
- percentage of dead cells (PI uptake) (L929 cells; 5 μM): 7.5%
- percentage of dead cells (PI uptake) (MEL cells; 2 μM): 6.2%
- percentage of dead cells (PI uptake) (MEL cells; 5 μM): 5.8%
- percentage of dead cells (PI uptake) (COS-7 cells; 2 μM): 3.6%
- percentage of dead cells (PI uptake) (COS-7 cells; 5 μM): 4.5%
- percentage of dead cells (PI uptake) (CHO cells; 2 μM): 5.6%
- percentage of dead cells (PI uptake) (CHO cells; 5 μM): 4.7%
- percentage of dead cells (PI uptake) (RBL-2H3 cells; 2 μM): 7.9%
- percentage of dead cells (PI uptake) (RBL-2H3 cells; 5 μM): 8.8%
- percentage of dead cells (PI uptake) (C2F3 cells; 2 μM): 15.8%
- percentage of dead cells (PI uptake) (C2F3 cells; 5 μM): 12.8%
- percentage of dead cells (PI uptake) (Jurkat E6-1 cells; 2 μM): 2.5%
- percentage of dead cells (PI uptake) (Jurkat E6-1 cells; 5 μM): 3.2%
- percentage of dead cells (PI uptake) (NGP cells; 2 μM): 10.9%
- percentage of dead cells (PI uptake) (NGP cells; 5 μM): 5.9%
- percentage of dead cells (PI uptake) (NLF cells; 2 μM): 10.8%
- percentage of dead cells (PI uptake) (NLF cells; 5 μM): 10.8%
- clinical appearance (CF-1 BR mice; 7-day study): all animals appeared clinically normal
- mortality (CF-1 BR mice; 7-day study): no mortality
- body weight on day 1 (CF-1 BR mice; day 1): 17.8 g
- body weight on day 7 (CF-1 BR mice; day 7): 27.0 g
- half-life ([1]; artificial stomach fluid (DAB 9), pH 1): ~45 min
- stability against hydrolysis ([1]; pH 5.0, 37° C.): completely stable
- stability against hydrolysis ([1]; pH 7.4, 37° C.): completely stable
- stability against hydrolysis ([1]; pH 10): completely stable
- logP (logP): 4
- cell viability in the ten cell lines examined (ten cell lines): did not reduce cell viability
